Measurements published in ChEMBL document CHEMBL1671854, “ramR mutations involved in efflux-mediated multidrug resistance in Salmonella enterica serovar Typhimurium” (2008).
≈ marks a conversion by molar mass, not a printed value.

Columns and labels:
Format in all cases: functional, Salmonella enterica subsp. enterica serovar Typhimurium
Salmonella typhimurium [1] = experiment: Antimicrobial activity against Salmonella enterica serovar Typhimurium BN18/71 harboring GyrA G81C, acrR mutant genes by agar doubling dilution method
Salmonella typhimurium [2] = experiment: Antimicrobial activity against multidrug-resistant Salmonella enterica serovar Typhimurium 102SA00 harboring plasmid encoded RamR gene, GyrA S83A and D87N, GyrB S464F and ParC S80I mutant genes by agar doubling dilution method
Salmonella typhimurium [3] = experiment: Antimicrobial activity against Salmonella enterica serovar Typhimurium BN18 by agar doubling dilution method
Salmonella typhimurium [4] = experiment: Antimicrobial activity against multidrug-resistant Salmonella enterica serovar Typhimurium 543SA98 harboring plasmid encoded RamR gene, GyrA S83Y mutant gene by agar doubling dilution method
Salmonella typhimurium [5] = experiment: Antimicrobial activity against multidrug-resistant Salmonella enterica serovar Typhimurium BN9181 harboring plasmid encoded RamR gene by agar doubling dilution method
Salmonella typhimurium [6] = experiment: Antimicrobial activity against ramA::kan-deficient Salmonella enterica serovar Typhimurium S/921495 by agar doubling dilution method
Salmonella typhimurium [7] = experiment: Antimicrobial activity against Salmonella enterica serovar Typhimurium S/921495 by agar doubling dilution method
Salmonella typhimurium [8] = experiment: Antimicrobial activity against ramA::kan-deficient Salmonella enterica serovar Typhimurium BN9181 by agar doubling dilution method
Salmonella typhimurium [9] = experiment: Antimicrobial activity against Salmonella enterica serovar Typhimurium BN18/41 harboring plasmid encoded RamR gene, GyrA G81C,acrR mutant genes by agar doubling dilution method
Salmonella typhimurium [10] = experiment: Antimicrobial activity against multidrug-resistant Salmonella enterica serovar Typhimurium BN9945 harboring plasmid encoded RamR gene by agar doubling dilution method
Salmonella typhimurium [11] = experiment: Antimicrobial activity against multidrug-resistant Salmonella enterica serovar Typhimurium 902SA92 harboring plasmid encoded RamR gene, GyrA S83A and D87N, GyrB S464F and ParC S80I mutant genes by agar doubling dilution method
Salmonella typhimurium [12] = experiment: Antimicrobial activity against Salmonella enterica serovar Typhimurium S/921495 harboring plasmid encoded RamR gene by agar doubling dilution method
Salmonella typhimurium [13] = experiment: Antimicrobial activity against multidrug-resistant Salmonella enterica serovar Typhimurium 102SA00 harboring GyrA S83A and D87N, GyrB S464F and ParC S80I mutant genes by agar doubling dilution method
Salmonella typhimurium [14] = experiment: Antimicrobial activity against Salmonella enterica serovar Typhimurium BN18/71 harboring plasmid encoded RamR gene, GyrA G81C,acrR mutant genes by agar doubling dilution method
Salmonella typhimurium [15] = experiment: Antimicrobial activity against ramR-deficient Salmonella enterica serovar Typhimurium S/921495 harboring plasmid encoded RamR gene by agar doubling dilution method
Salmonella typhimurium [16] = experiment: Antimicrobial activity against marR::kan-deficient Salmonella enterica serovar Typhimurium S/921495 by agar doubling dilution method
Salmonella typhimurium [17] = experiment: Antimicrobial activity against multidrug-resistant Salmonella enterica serovar Typhimurium BN10055 harboring GyrA S83Y mutant gene by agar doubling dilution method
Salmonella typhimurium [18] = experiment: Antimicrobial activity against multidrug-resistant Salmonella enterica serovar Typhimurium BN9181 by agar doubling dilution method
Salmonella typhimurium [19] = experiment: Antimicrobial activity against marR-deficient Salmonella enterica serovar Typhimurium S/921495 by agar doubling dilution method
Salmonella typhimurium [20] = experiment: Antimicrobial activity against Salmonella enterica serovar Typhimurium BN18/21 harboring plasmid encoded RamR gene by agar doubling dilution method
Salmonella typhimurium [21] = experiment: Antimicrobial activity against Salmonella enterica serovar Typhimurium BN18/41 harboring GyrA G81C,acrR mutant genes by agar doubling dilution method
Salmonella typhimurium [22] = experiment: Antimicrobial activity against ramR::kan-deficient Salmonella enterica serovar Typhimurium S/921495 by agar doubling dilution method
Salmonella typhimurium [23] = experiment: Antimicrobial activity against Salmonella enterica serovar Typhimurium BN18 harboring plasmid encoded RamR gene by agar doubling dilution method
Salmonella typhimurium [24] = experiment: Antimicrobial activity against ramR-deficient Salmonella enterica serovar Typhimurium S/921495 by agar doubling dilution method
Salmonella typhimurium [25] = experiment: Antimicrobial activity against multidrug-resistant Salmonella enterica serovar Typhimurium 543SA98 harboring GyrA […] mutant gene by agar doubling dilution method
Salmonella typhimurium [26] = experiment: Antimicrobial activity against multidrug-resistant Salmonella enterica serovar Typhimurium BN9945 by agar doubling dilution method
Salmonella typhimurium [27] = experiment: Antimicrobial activity against ramA::kan-deficient Salmonella enterica serovar Typhimurium 102SA00 harboring GyrA S83A and D87N, GyrB S464F and ParC S80I mutant genes by agar doubling dilution method
Salmonella typhimurium [28] = experiment: Antimicrobial activity against Salmonella enterica serovar Typhimurium BN18/21 by agar doubling dilution method
Salmonella typhimurium [29] = experiment: Antimicrobial activity against ramA::kan-deficient Salmonella enterica serovar Typhimurium BN18/71 harboring plasmid encoded RamR gene, GyrA G81C,acrR mutant genes by agar doubling dilution method
Salmonella typhimurium [30] = experiment: Antimicrobial activity against ramA::kan-deficient Salmonella enterica serovar Typhimurium BN9945 by agar doubling dilution method
Salmonella typhimurium [31] = experiment: Antimicrobial activity against ramA::kan-deficient Salmonella enterica serovar Typhimurium 902SA92 harboring GyrA S83A and D87N, GyrB S464F and ParC S80I mutant genes by agar doubling dilution method
Salmonella typhimurium [32] = experiment: Antimicrobial activity against multidrug-resistant Salmonella enterica serovar Typhimurium BN10055 harboring plasmid encoded RamR gene, GyrA S83Y mutant gene by agar doubling dilution method
Salmonella typhimurium [33] = experiment: Antimicrobial activity against ramA::kan-deficient Salmonella enterica serovar Typhimurium 543SA98 harboring GyrA S83Y mutant gene by agar doubling dilution method
Salmonella typhimurium [34] = experiment: Antimicrobial activity against ramA::kan-deficient Salmonella enterica serovar Typhimurium BN18/21 by agar doubling dilution method
Salmonella typhimurium [35] = experiment: Antimicrobial activity against ramA::kan-deficient Salmonella enterica serovar Typhimurium BN10055 harboring GyrA S83Y mutant gene by agar doubling dilution method
Salmonella typhimurium [36] = experiment: Antimicrobial activity against ramA::kan-deficient Salmonella enterica serovar Typhimurium BN18/41 harboring plasmid encoded RamR gene, GyrA G81C,acrR mutant genes by agar doubling dilution method
Salmonella typhimurium [37] = experiment: Antimicrobial activity against multidrug-resistant Salmonella enterica serovar Typhimurium 902SA92 harboring GyrA S83A and D87N, GyrB S464F and ParC S80I mutant genes by agar doubling dilution method
Salmonella typhimurium [38] = experiment: Antimicrobial activity against marA::kan-deficient Salmonella enterica serovar Typhimurium S/921495 by agar doubling dilution method
Salmonella typhimurium [39] = experiment: Antimicrobial activity against ramA::kan-deficient Salmonella enterica serovar Typhimurium BN18 by agar doubling dilution method
Salmonella typhimurium [40] = experiment: Antimicrobial activity against soxR::kan-deficient Salmonella enterica serovar Typhimurium S/921495 by agar doubling dilution method
Salmonella typhimurium [41] = experiment: Antimicrobial activity against soxS::kan-deficient Salmonella enterica serovar Typhimurium S/921495 by agar doubling dilution method

O=C(O)c1cn(C2CC2)c2cc(N3CCNCC3)c(F)cc2c1=O [CIPROFLOXACIN]
MIC (Salmonella typhimurium [1]): 8 µg/mL (≈ 24.1 µM)
MIC (Salmonella typhimurium [2]): 8 µg/mL (≈ 24.1 µM)
MIC (Salmonella typhimurium [3]): 0.015 µg/mL (≈ 0.0453 µM)
MIC (Salmonella typhimurium [4]): 0.125 µg/mL (≈ 0.377 µM)
MIC (Salmonella typhimurium [5]): 0.015 µg/mL (≈ 0.0453 µM)
MIC (Salmonella typhimurium [6]): 0.015 µg/mL (≈ 0.0453 µM)
MIC (Salmonella typhimurium [7]): 0.015 µg/mL (≈ 0.0453 µM)
MIC (Salmonella typhimurium [8]): 0.0075 µg/mL (≈ 0.0226 µM)
MIC (Salmonella typhimurium [9]): 0.5 µg/mL (≈ 1.51 µM)
MIC (Salmonella typhimurium [10]): 0.125 µg/mL (≈ 0.377 µM)
MIC (Salmonella typhimurium [11]): 8 µg/mL (≈ 24.1 µM)
MIC (Salmonella typhimurium [12]): 0.015 µg/mL (≈ 0.0453 µM)
MIC (Salmonella typhimurium [13]): 32 µg/mL (≈ 96.6 µM)
MIC (Salmonella typhimurium [14]): 2 µg/mL (≈ 6.04 µM)
MIC (Salmonella typhimurium [15]): 0.015 µg/mL (≈ 0.0453 µM)
MIC (Salmonella typhimurium [16]): 0.015 µg/mL (≈ 0.0453 µM)
MIC (Salmonella typhimurium [17]): 1 µg/mL (≈ 3.02 µM)
MIC (Salmonella typhimurium [18]): 0.015 µg/mL (≈ 0.0453 µM)
MIC (Salmonella typhimurium [19]): 0.015 µg/mL (≈ 0.0453 µM)
MIC (Salmonella typhimurium [20]): 0.06 µg/mL (≈ 0.181 µM)
MIC (Salmonella typhimurium [21]): 2 µg/mL (≈ 6.04 µM)
MIC (Salmonella typhimurium [22]): 0.06 µg/mL (≈ 0.181 µM)
MIC (Salmonella typhimurium [23]): 0.015 µg/mL (≈ 0.0453 µM)
MIC (Salmonella typhimurium [24]): 0.06 µg/mL (≈ 0.181 µM)
MIC (Salmonella typhimurium [25]): 0.5 µg/mL (≈ 1.51 µM)
MIC (Salmonella typhimurium [26]): 0.5 µg/mL (≈ 1.51 µM)
MIC (Salmonella typhimurium [27]): 8 µg/mL (≈ 24.1 µM)
MIC (Salmonella typhimurium [28]): 0.125 µg/mL (≈ 0.377 µM)
MIC (Salmonella typhimurium [29]): 2 µg/mL (≈ 6.04 µM)
MIC (Salmonella typhimurium [30]): 0.125 µg/mL (≈ 0.377 µM)
MIC (Salmonella typhimurium [31]): 8 µg/mL (≈ 24.1 µM)
MIC (Salmonella typhimurium [32]): 1 µg/mL (≈ 3.02 µM)
MIC (Salmonella typhimurium [33]): 0.125 µg/mL (≈ 0.377 µM)
MIC (Salmonella typhimurium [34]): 0.06 µg/mL (≈ 0.181 µM)
MIC (Salmonella typhimurium [35]): 0.25 µg/mL (≈ 0.754 µM)
MIC (Salmonella typhimurium [36]): 0.5 µg/mL (≈ 1.51 µM)
MIC (Salmonella typhimurium [37]): 32 µg/mL (≈ 96.6 µM)
MIC (Salmonella typhimurium [38]): 0.015 µg/mL (≈ 0.0453 µM)
MIC (Salmonella typhimurium [39]): 0.015 µg/mL (≈ 0.0453 µM)
MIC (Salmonella typhimurium [40]): 0.015 µg/mL (≈ 0.0453 µM)
MIC (Salmonella typhimurium [41]): 0.015 µg/mL (≈ 0.0453 µM)

CS(=O)(=O)c1ccc([C@@H](O)[C@@H](CF)NC(=O)C(Cl)Cl)cc1 [FLORFENICOL]
MIC (Salmonella typhimurium [1]): 64 µg/mL (≈ 179 µM)
MIC (Salmonella typhimurium [2]): 4 µg/mL (≈ 11.2 µM)
MIC (Salmonella typhimurium [3]): 4 µg/mL (≈ 11.2 µM)
MIC (Salmonella typhimurium [4]): 128 µg/mL (≈ 357 µM)
MIC (Salmonella typhimurium [5]): 32 µg/mL (≈ 89.3 µM)
MIC (Salmonella typhimurium [6]): 4 µg/mL (≈ 11.2 µM)
MIC (Salmonella typhimurium [7]): 4 µg/mL (≈ 11.2 µM)
MIC (Salmonella typhimurium [8]): 32 µg/mL (≈ 89.3 µM)
MIC (Salmonella typhimurium [9]): 8 µg/mL (≈ 22.3 µM)
MIC (Salmonella typhimurium [10]): 64 µg/mL (≈ 179 µM)
MIC (Salmonella typhimurium [11]): 4 µg/mL (≈ 11.2 µM)
MIC (Salmonella typhimurium [12]): 4 µg/mL (≈ 11.2 µM)
MIC (Salmonella typhimurium [13]): 16 µg/mL (≈ 44.7 µM)
MIC (Salmonella typhimurium [14]): 8 µg/mL (≈ 22.3 µM)
MIC (Salmonella typhimurium [15]): 4 µg/mL (≈ 11.2 µM)
MIC (Salmonella typhimurium [16]): 4 µg/mL (≈ 11.2 µM)
MIC (Salmonella typhimurium [17]): 128 µg/mL (≈ 357 µM)
MIC (Salmonella typhimurium [18]): 32 µg/mL (≈ 89.3 µM)
MIC (Salmonella typhimurium [19]): 4 µg/mL (≈ 11.2 µM)
MIC (Salmonella typhimurium [20]): 4 µg/mL (≈ 11.2 µM)
MIC (Salmonella typhimurium [21]): 64 µg/mL (≈ 179 µM)
MIC (Salmonella typhimurium [22]): 16 µg/mL (≈ 44.7 µM)
MIC (Salmonella typhimurium [23]): 4 µg/mL (≈ 11.2 µM)
MIC (Salmonella typhimurium [24]): 16 µg/mL (≈ 44.7 µM)
MIC (Salmonella typhimurium [25]): 512 µg/mL (≈ 1430 µM)
MIC (Salmonella typhimurium [26]): 128 µg/mL (≈ 357 µM)
MIC (Salmonella typhimurium [27]): 4 µg/mL (≈ 11.2 µM)
MIC (Salmonella typhimurium [28]): 16 µg/mL (≈ 44.7 µM)
MIC (Salmonella typhimurium [29]): 8 µg/mL (≈ 22.3 µM)
MIC (Salmonella typhimurium [30]): 64 µg/mL (≈ 179 µM)
MIC (Salmonella typhimurium [31]): 4 µg/mL (≈ 11.2 µM)
MIC (Salmonella typhimurium [32]): 128 µg/mL (≈ 357 µM)
MIC (Salmonella typhimurium [33]): 128 µg/mL (≈ 357 µM)
MIC (Salmonella typhimurium [34]): 4 µg/mL (≈ 11.2 µM)
MIC (Salmonella typhimurium [35]): 32 µg/mL (≈ 89.3 µM)
MIC (Salmonella typhimurium [36]): 8 µg/mL (≈ 22.3 µM)
MIC (Salmonella typhimurium [37]): 16 µg/mL (≈ 44.7 µM)
MIC (Salmonella typhimurium [38]): 4 µg/mL (≈ 11.2 µM)
MIC (Salmonella typhimurium [39]): 2 µg/mL (≈ 5.58 µM)
MIC (Salmonella typhimurium [40]): 4 µg/mL (≈ 11.2 µM)
MIC (Salmonella typhimurium [41]): 4 µg/mL (≈ 11.2 µM)
